Assay results reported in patent US20260347372A1, “SMALL MOLECULE INHIBITORS OF KRAS G12D MUTANT” (MERCK SHARP & DOHME LLC, priority 2023, published 2026).

Key:
[1] = biological target: KRAS G12D (Homo sapiens, UniProt P01116, G12D); assay: SOS-catalyzed nucleotide exchange assay, KRAS G12D (Procedure A); assay type: biochemical; conditions: guanine nucleotide exchange (GNE)
In short: (§1)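 Compounds were preincubated 60 min with a biotinylated RAS·Bodipy-GDP/Tb-streptavidin TR-FRET complex, and exchange was started with human SOS plus 3 mM GTP at RT. RAS/SOS: G12C 3 nM/40 nM, WT and G12D 1 nM/40 nM, all 60 min; G13D 1.25 nM/0 nM, 30 min. 520/495 ratio normalized to DMSO and saturating inhibitor, four-parameter fit.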

[2] = biological target: KRAS WT (Homo sapiens, UniProt P01116); assay: SOS-catalyzed nucleotide exchange assay, KRAS WT (Procedure A); assay type: biochemical; conditions: GNE
Chain of KRAS WT (P01116 with tags, fused parts or gaps isoform P01116-2): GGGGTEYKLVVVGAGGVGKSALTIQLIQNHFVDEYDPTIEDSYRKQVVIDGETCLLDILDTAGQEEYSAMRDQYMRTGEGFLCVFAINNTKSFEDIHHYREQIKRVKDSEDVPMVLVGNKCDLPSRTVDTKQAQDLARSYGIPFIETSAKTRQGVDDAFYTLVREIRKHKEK
In short: as §1

[3] = biological target: KRAS G12C (Homo sapiens, UniProt P01116, C118S/C51S/C80L/G12C); assay: SOS-catalyzed nucleotide exchange assay, KRAS G12C (Procedure A); assay type: biochemical; conditions: GNE
Chain of KRAS G12C (P01116 with tags, fused parts or gaps isoform P01116-2 G12C/C51S/C80L/C118S): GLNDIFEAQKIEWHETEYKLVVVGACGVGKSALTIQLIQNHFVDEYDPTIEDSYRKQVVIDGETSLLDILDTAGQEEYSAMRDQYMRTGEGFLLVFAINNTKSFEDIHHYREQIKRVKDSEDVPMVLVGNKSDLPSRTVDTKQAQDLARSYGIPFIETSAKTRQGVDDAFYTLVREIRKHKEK
Text: (§2) Procedure for SOS-Catalyzed Nucleotide Exchange Assay for KRAS-WT, G12C/D/V, G13D, HRAS, and NRAS (Procedure A)
(§3) Recombinant KRAS-G12C protein used in this assay has an additional triple mutation (C51S/C80L/C118S). Whereas KRAS-WT, G12D/V, G13D, HRAS and NRAS are in context of their WT protein sequence background. Specifically, the SOS-catalyzed nucleotide exchange assay utilizes a preformed TR-FRET complex containing a specific biotinylated RAS protein (KRAS-WT, G12C/V/D, G13D, HRAS, NRAS; described above) with Bodipy-GDP, and Terbium-streptavidin. Compounds are preincubated with this complex for 60 minutes. Subsequently, recombinant human SOS protein and unlabeled GTP are added to initiate the exchange reaction. Small molecule inhibitors stabilize the Bodipy-GDP complex whereas the untreated protein rapidly exchanges Bodipy-GDP for unlabeled GTP resulting in reduced TR-FRET signal.
(§4) To assemble the preformed TR-FRET complexes, each biotinylated RAS protein is diluted to 2 μM in an EDTA Buffer (20 mM HEPES pH 7.5, 50 mM sodium chloride, 10 mM EDTA, and 0.01% Tween) and incubated at room temperature for one hour. This mixture is then further diluted to 90 nM in an Assay Buffer (20 mM HEPES pH 7.5, 150 mM sodium chloride, 10 mM magnesium chloride, and 0.005% Tween) containing 15 nM of Terbium-Streptavidin (Invitrogen, catalog #PV3577) and 900 nM of Bodipy-GDP (Invitrogen, catalog #G22360) and incubated at room temperature for six hours. It should be noted that this preformed TR-FRET complex for each of the RAS protein were made ahead of time, aliquoted and stored at −80° C. until the day of the experiment.
(§5) Each test compound (10 mM stock in DMSO) is diluted in DMSO to make a final-10-point, 3-fold dilution and is acoustically dispensed into a 384-well assay plate (Corning, catalog #3820) using an Echo 550 (Labcyte). Each well of the assay plate receives 3 μL of a specific 3×RAS preformed TR-FRET complex and 3 μL of Assay Buffer and is incubated at room temperature for 60 minutes (preincubation time). Each well then receives 3 μL of 3× recombinant human SOS protein and GTP (Sigma, G8877) in Assay Buffer and is incubated at room temperature for 30 minutes (G13D), 60 minutes (KRAS WT/G12C/D, H/NRAS) or 90 minutes for G12V. The final reaction in each well of 9 μL consists of 3 mM GTP, specific Ras and SOS proteins in the following concentrations: KRAS-G12C/SOS=3 nM/40 nM, KRAS-WT and G12D/SOS=1 nM/40 nM, KRAS-G12V/SOS=1.25 nM/160 nM, KRAS-G13D/SOS=1.25 nM/0 nM, HRAS and NRAS=1.25 nM/40 nM.
(§6) The time-resolved fluorescence resonance energy transfer (TR-FRET) signal is measured on an Envision (PerkinElmer) plate reader: Excitation filter=340 nm; emission1=495 nm; emission2=520 nm; dichroic mirror=D400/D505; delay time=[…]. The signal of each well is determined as the ratio of the emission at 520 nm to that at 495 nm. Percent effect of each well is determined after normalization to control wells containing DMSO (no effect) or a saturating concentration of inhibitor (max effect). The apparent effect as a function of compound concentration is fit to a four-parameter logistic equation.
(§7) For Example No. 14, nucleotide exchange assays for KRAS G12D, WT, G12C, and G12V were performed according to Procedure B. All the other compounds were tested according to Procedure A.

[4] = biological target: T1, AsPC-1 cells (Homo sapiens, UniProt P01116, G12D); assay: Cellular phospho-ERK assay, AsPC-1 cells (KRAS G12D); assay type: cell-based; conditions: 2 hours, read-out: AsPC1 pERK IC50
T1 construct: p-ERK/total ERK AlphaSureFire read-out
T1 sequence (P01116 1-188 isoform P01116-2 G12D): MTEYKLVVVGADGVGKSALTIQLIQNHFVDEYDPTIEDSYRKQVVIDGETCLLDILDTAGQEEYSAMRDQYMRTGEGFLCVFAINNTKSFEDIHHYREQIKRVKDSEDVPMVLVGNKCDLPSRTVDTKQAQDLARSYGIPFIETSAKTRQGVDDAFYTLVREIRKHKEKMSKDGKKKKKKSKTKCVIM
In short: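 PANC08.13 or AsPC-1 cells (homozygous KRAS G12D) were seeded overnight, then treated for 2 h at 37 °C with a 10-point 1:3 titration from 30 μM. Lysates were assayed by AlphaLISA SureFire for p-ERK and total ERK. IC50 came from a 4-parameter fit of the p-ERK/total ERK ratio.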

[5] = biological target: HRAS (Homo sapiens, UniProt P01112); assay: SOS-catalyzed nucleotide exchange assay, HRAS (Procedure A); assay type: biochemical; conditions: GNE
Chain of HRAS (P01112 with tags, fused parts or gaps): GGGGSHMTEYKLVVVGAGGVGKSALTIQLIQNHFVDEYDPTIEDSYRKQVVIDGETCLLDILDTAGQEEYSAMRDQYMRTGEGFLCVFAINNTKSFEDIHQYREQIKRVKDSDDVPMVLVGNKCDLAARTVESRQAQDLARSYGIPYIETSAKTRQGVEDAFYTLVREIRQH
Text: as §2, §3, §4, §5, §6, §7

[6] = biological target: NRAS (Homo sapiens, UniProt P01111); assay: SOS-catalyzed nucleotide exchange assay, NRAS (Procedure A); assay type: biochemical; conditions: GNE
Chain of NRAS (P01111 with tags, fused parts or gaps): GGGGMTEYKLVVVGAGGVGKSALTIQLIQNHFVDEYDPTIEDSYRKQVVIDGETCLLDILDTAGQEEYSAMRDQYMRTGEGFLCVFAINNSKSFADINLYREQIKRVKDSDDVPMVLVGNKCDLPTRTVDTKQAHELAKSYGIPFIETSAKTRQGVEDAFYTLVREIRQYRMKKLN
Text: as §2, §3, §4, §5, §6, §7

[7] = biological target: KRAS G12V (Homo sapiens, UniProt P01116, G12V); assay: SOS-catalyzed nucleotide exchange assay, KRAS G12V (Procedure A); assay type: biochemical; conditions: GNE
Chain of KRAS G12V (P01116 with tags, fused parts or gaps isoform P01116-2 G12V): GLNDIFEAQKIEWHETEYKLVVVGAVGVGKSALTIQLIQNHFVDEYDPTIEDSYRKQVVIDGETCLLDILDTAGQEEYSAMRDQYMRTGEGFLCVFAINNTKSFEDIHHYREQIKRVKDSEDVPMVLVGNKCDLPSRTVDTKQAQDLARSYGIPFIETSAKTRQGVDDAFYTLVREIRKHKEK
In short: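 Biotinylated KRAS G12V was loaded with Bodipy-GDP alongside Terbium-streptavidin to form a TR-FRET complex, which was preincubated with compounds for 60 minutes in 384-well plates. Human SOS protein and unlabeled GTP were then added for 90 minutes, giving final concentrations of 1.25 nM KRAS-G12V, 160 nM SOS and 3 mM GTP. The 520/495 nm emission ratio was read on an Envision.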

[8] = biological target: KRAS G13D (Homo sapiens, UniProt P01116, G13D); assay: SOS-catalyzed nucleotide exchange assay, KRAS G13D (Procedure A); assay type: biochemical; conditions: GNE
Chain of KRAS G13D (P01116 with tags, fused parts or gaps isoform P01116-2 G13D): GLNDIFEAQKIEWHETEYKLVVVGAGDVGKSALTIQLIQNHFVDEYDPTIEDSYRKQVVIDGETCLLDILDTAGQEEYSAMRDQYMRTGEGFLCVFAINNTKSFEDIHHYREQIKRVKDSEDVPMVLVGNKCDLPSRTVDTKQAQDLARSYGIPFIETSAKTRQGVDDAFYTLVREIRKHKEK
Text: as §2, §3, §4, §5, §6, §7

Chain of KRAS G12D (P01116 with tags, fused parts or gaps isoform P01116-2 G12D): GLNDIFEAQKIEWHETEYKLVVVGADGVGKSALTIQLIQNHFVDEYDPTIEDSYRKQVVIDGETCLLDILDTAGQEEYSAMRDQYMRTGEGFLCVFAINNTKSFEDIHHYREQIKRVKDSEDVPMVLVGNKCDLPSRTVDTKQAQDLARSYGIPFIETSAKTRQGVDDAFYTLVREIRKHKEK

| IC50 [1] [µM] | IC50 [2] [µM] | IC50 [3] [µM] | IC50 [4] [µM] | IC50 [5] [µM] | IC50 [6] [µM] | IC50 [7] [µM] | IC50 [8] [µM] | Structure (SMILES) |
| --- | --- | --- | --- | --- | --- | --- | --- | --- |
| 0.836 | 7.5 | 0.948 | 5.11 | > 11.1 | > 11.1 | 9.75 | 2.26 | Cc1cc2[nH]ncc2c(-c2nccc3c2sc2nc(OC[C@@]45CCCN4C[C@H](F)C5)nc(N4C[C@H]5C[C@@H]4CN5)c23)c1C(F)(F)F [Ex-70, 4-((1R,4R)-2,5-diazabicyclo[2.2.1]heptan-2-yl)-2-(((2R,7aS)-2-fluorotetrahydro-1H-pyrrolizin-7a(5H)-yl)methoxy)-8-(6-methyl-5-(trifluoromethyl)-1H-indazol-4-yl)pyrido[4′,3′:4,5]thieno[2,3-d]pyrimidine] |
| 0.0131 | 0.856 | 0.265 | 0.699 | > 11.1 | > 11.1 | 0.672 | 0.323 | Cc1cc2[nH]ncc2c(-c2nccc3c2sc2nc(OC[C@@]45CCCN4C[C@H](F)C5)nc(N4CC5CC(C4)N5)c23)c1C(F)(F)F [Ex-67, 4-(3,6-diazabicyclo[3.1.1]heptan-3-yl)-2-(((2R,7aS)-2-fluorotetrahydro-1H-pyrrolizin-7a(5H)-yl)methoxy)-8-(6-methyl-5-(trifluoromethyl)-1H-indazol-4-yl)pyrido[4′,3′:4,5]thieno[2,3-d]pyrimidine] |
| 0.00805 | 1.16 | 0.412 | 0.296 | > 11.1 | > 11.1 | 1.24 | 0.287 | F[C@H]1CN2CCC[C@@]2(COc2nc(N3C[C@H]4CC[C@@H](C3)N4)c3c(n2)sc2c(-c4c(C5CC5)c(Cl)cc5[nH]ncc45)nccc23)C1 [Ex-20, 4-((1R,5S)-3,8-diazabicyclo[3.2.1]octan-3-yl)-8-(6-chloro-5-cyclopropyl-1H-indazol-4-yl)-2-(((2R,7aS)-2-fluorotetrahydro-1H-pyrrolizin-7a(5H)-yl)methoxy)pyrido[4′,3′:4,5]thieno[2,3-d]pyrimidine] |
| 1.39 | > 11.1 | > 11.1 | 4.79 | > 11.1 | > 11.1 | > 11.1 | > 11.1 | Cc1cc2[nH]ncc2c(-c2nccc3c2sc2nc(OC[C@@]45CCCN4C[C@H](F)C5)nc(N4[C@@H]5CC[C@H]4CN(C)C5)c23)c1C(F)(F)F [Ex-73, 2-(((2R,7aS)-2-fluorotetrahydro-1H-pyrrolizin-7a(5H)-yl)methoxy)-8-(6-methyl-5-(trifluoromethyl)-1H-indazol-4-yl)-4-((1R,5S)-3-methyl-3,8-diazabicyclo[3.2.1]octan-8-yl)pyrido[4′,3′:4,5]thieno[2,3-d]pyrimidine] |
| 0.00925 | 1.65 | 0.182 | 0.217 | > 11.1 | > 11.1 | 1.37 | 0.265 | Fc1ccc2cc3[nH]ncc3c(-c3nccc4c3sc3nc(OC[C@@]56CCCN5C[C@H](F)C6)nc(N5C[C@H]6CC[C@@H](C5)N6)c34)c2c1Cl [Ex-59, 4-((1R,5S)-3,8-diazabicyclo[3.2.1]octan-3-yl)-8-(5-chloro-6-fluoro-1H-benzo[f]indazol-4-yl)-2-(((2R,7aS)-2-fluorotetrahydro-1H-pyrrolizin-7a(5H)-yl)methoxy)pyrido[4′,3′:4,5]thi-eno[2,3-d]pyrimidine] |
| 0.0356 | 4.91 | 1.74 | 1.54 | > 11.1 | > 11.1 | > 11.1 | 1.21 | Cc1cc2[nH]ncc2c(-c2nccc3c2sc2nc(OC[C@@]45CCCN4C[C@H](F)C5)nc(N4C[C@@H]5C[C@H]4CN5)c23)c1C(F)(F)F [Ex-69, 4-((1S,4S)-2,5-diazabicyclo[2.2.1]heptan-2-yl)-2-(((2R,7aS)-2-fluorotetrahydro-1H-pyrrolizin-7a(5H)-yl)methoxy)-8-(6-methyl-5-(trifluoromethyl)-1H-indazol-4-yl)pyrido[4′,3′:4,5]thieno[2,3-d]pyrimidine] |
| 0.00131 | 0.148 | 0.0739 | 0.025 | > 11.1 | > 11.1 | 0.105 | 0.0425 | C#Cc1cccc2cc3[nH]ncc3c(-c3nccc4c3sc3nc(OC[C@@]56CCCN5C[C@H](F)C6)nc(N5C[C@H]6CC[C@@H](C5)N6)c34)c12 [Ex-55, 4-((1R,5S)-3,8-diazabicyclo[3.2.1]octan-3-yl)-8-(5-ethynyl-1H-benzo[f]indazol-4-yl)-2-(((2R,7aS)-2-fluorotetrahydro-1H-pyrrolizin-7a(5H)-yl)methoxy)pyrido[4′,3′:4,5]thieno[2,3-d]pyrimidine] |
| 5.3 | > 11.1 | > 11.1 | > 30 | > 11.1 | > 11.1 | > 11.1 | 2.62 | Cc1cc2[nH]ncc2c(-c2nccc3c2sc2nc(OC[C@@]45CCCN4C[C@H](F)C5)nc(N4CCC5CCC(C4)N5)c23)c1C(F)(F)F (stereo partly drawn) [Ex-72, 4-(3,9-diazabicyclo[4.2.1]nonan-3-yl)-2-(((2R,7aS)-2-fluorotetrahydro-1H-pyrrolizin-7a(5H)-yl)methoxy)-8-(6-methyl-5-(trifluoromethyl)-1H-indazol-4-yl)pyrido[4′,3′:4,5]thieno[2,3-d]pyrimidine] |
| 1.02 | > 11.1 | > 11.1 | > 30 | > 11.1 | > 11.1 | > 11.1 | > 11.1 | Cc1cc2[nH]ncc2c(-c2nccc3c2sc2nc(OC[C@]4(C#N)C[C@H]4S(C)(=O)=O)nc(N4C[C@H]5CC[C@@H](C4)N5)c23)c1C(F)(F)F [Ex-32, (1R,2R)-1-(((4-((1R,5S)-3,8-diazabicyclo[3.2.1]octan-3-yl)-8-(6-methyl-5-(trifluoromethyl)-1H-indazol-4-yl)pyrido[4′,3′:4,5]thieno[2,3-d]pyrimidin-2-yl)oxy)methyl)-2-(methylsulfonyl)cyclopropane-1-carbonitrile] |
